Source: patent US12122761B2, “2-azaspiro[3.4]octane derivatives as M4 agonists” (NOVARTIS AG, priority 2019, dated 2024)

Key:
[1] = target: T1, human cloned CHRM4 receptor (M4_CHO cells) (Homo sapiens, UniProt P08173); experiment: CHRM4 Ca++ Flux Assay (agonist mode, FDSS 7000EX); format: cell-based; conditions: for M4 FDSS PA / Emax: Percent Activity; for EC50: geometric mean if tested more than once, read-out: M4 FDSS EC50; for Emax: read-out: M4 FDSS PA
T1 construct: expressed in transfected cells; host or cells: CHO-K1
T1 sequence (P08173 1-479): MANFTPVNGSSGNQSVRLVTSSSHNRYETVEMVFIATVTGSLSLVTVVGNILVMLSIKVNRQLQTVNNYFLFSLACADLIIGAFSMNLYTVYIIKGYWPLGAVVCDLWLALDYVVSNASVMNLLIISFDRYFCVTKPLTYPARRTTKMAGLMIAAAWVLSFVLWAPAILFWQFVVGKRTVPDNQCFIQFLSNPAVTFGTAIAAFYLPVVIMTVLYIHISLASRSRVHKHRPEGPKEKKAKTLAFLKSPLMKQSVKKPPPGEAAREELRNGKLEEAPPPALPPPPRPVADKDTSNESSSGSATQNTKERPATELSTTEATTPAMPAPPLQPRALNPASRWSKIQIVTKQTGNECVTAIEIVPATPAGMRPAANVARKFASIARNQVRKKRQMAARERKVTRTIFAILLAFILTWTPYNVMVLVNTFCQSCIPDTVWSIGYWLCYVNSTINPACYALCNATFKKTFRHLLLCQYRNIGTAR
Method: (§1) The above examples were characterized by measuring the intracellular mobilization of Ca++ ions caused by signaling events mediated by the receptor. The Intra-cellular Calcium flux levels were captured by the highly sensitive Ca++ indicator, Calcium Assay Kit (BD Biosciences, Catalog Number 640178). The fluorescent activity from all receptors were monitored by the fluorescent imager, FDSS 7000EX (Hamamatsu) over a span of 3 minutes.
(§2) CHO-K1 cells stably expressing the human cloned CHRM4 receptor (M4_CHO cells) were grown and maintained in a monolayer culture with F12/HAM (Life Technologies) supplemented with 10% Fetal Bovine Serum, 1× Pen-Strep, and 0.4 mg/mL Geneticin in a humidified atmosphere (5% CO2) at 37° C. The cultures were grown to 80-90% confluency in T150 flasks (Corning) and washed with 1×DPBS then lifted with 0.05% Trypsin (Life Technologies). The cells were harvested in growth media then spun (1K rpm, 3 minutes) and cryopreserved using Recovery Cell Culture Freezing Media (Gibco Technologies). Cells were stored in liquid nitrogen and thawed a day before the assay.
Prior to the day of the assay, stable M4_CHO cells were thawed and plated on 384 well black walled clear bottom TC treated plates (Greiner Cat #781091) at 12K cells/well using F12/HAM Media supplemented with 10% FBS (Life Technologies) and kept overnight in a humidified atmosphere (5% CO2) at 37° C. The next day, cells were loaded with […] Ca^++ dye (BD Biosciences) using Loading Buffer (HBSS +Ca/+Mg, 20 mM HEPES, 2.5 mM Probenecid) and placed back in cell incubator for a minimum of 1 hour. After incubation, the dye was replaced with 45 μL Assay Buffer (HBSS −Ca/−Mg, 20 mM HEPES, 2.5 mM Probenecid) supplemented with 20 μM ATP (Sigma Aldrich) and kept at room temperature in the dark for 60 minutes before running on a cell imager. The FDSS 7000EX (Hamamatsu) was used to capture Ca^++ traces for a span of 3 minutes from cells treated with 11 point dose of compound in triplicate in order to generate dose response curves in agonist mode. All compounds were serially diluted in DMSO then prepared in Assay Buffer for Ca^++ flux studies. The dose response curves were generated from the average of triplicate wells obtained from each data point and used a non-linear regression of four parameter dose response algorithm. The Percent Activity (PA) was measured to EC100 of Carbachol.

[2] = target: T2, human cloned CHRM2 receptor (M2_CHO cells) (Homo sapiens, UniProt P08172); experiment: CHRM2 Ca++ Flux Assay (agonist mode, FDSS 7000EX); format: cell-based; conditions: for M2 FDSS PA / Emax: Percent Activity measured to EC100 of Carbachol; for Emax: read-out: M2 FDSS PA; for EC50: agonist mode, geometric mean if tested more than once, read-out: M2 FDSS EC50
T2 construct: expressed in transfected cells; host or cells: CHO-K1
T2 sequence (P08172 1-466): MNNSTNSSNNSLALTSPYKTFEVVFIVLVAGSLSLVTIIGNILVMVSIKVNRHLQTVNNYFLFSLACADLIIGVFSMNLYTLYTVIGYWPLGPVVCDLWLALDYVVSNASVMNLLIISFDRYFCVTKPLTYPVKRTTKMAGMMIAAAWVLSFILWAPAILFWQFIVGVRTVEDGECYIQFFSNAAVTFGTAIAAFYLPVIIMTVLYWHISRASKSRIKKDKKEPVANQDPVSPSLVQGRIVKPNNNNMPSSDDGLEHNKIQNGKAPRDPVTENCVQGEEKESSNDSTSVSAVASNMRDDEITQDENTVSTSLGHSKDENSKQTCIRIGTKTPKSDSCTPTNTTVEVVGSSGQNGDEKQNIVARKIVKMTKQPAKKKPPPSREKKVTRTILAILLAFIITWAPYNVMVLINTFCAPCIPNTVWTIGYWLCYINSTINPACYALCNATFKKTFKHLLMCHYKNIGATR
Method: as §1
as §2, with “cloned CHRM2” for “cloned CHRM4”, “receptor (M2_CHO” for “receptor (M4_CHO”, “to 80-9 0%” for “to 80-90%”, “1×DPBS and” for “1×DPBS then”, “were” for “were harvested in growth media”, “and frozen” for “and cryopreserved”
Prior to the day of the assay, stable M2 CHO cells were thawed and plated on Greiner 384 well TC treated plate at a density of 12K cells/well and kept overnight in a humidified atmosphere (5% CO2) at 37° C. The following day, the cells were loaded with Ca^++ dye (BD Biosciences) using Loading Buffer (HBSS +Ca/+Mg, 20 mM HEPES, 2.5 mM Probenecid) and placed back in cell incubator for a minimum of 1 hour and maximum of 2 hours. After incubation, the dye was replaced with Assay Buffer (HBSS −Ca/−Mg, 20 mM HEPES, 2.5 mM Probenecid) supplemented with 20 μM ATP (Sigma Aldrich) and kept at room temperature for 60 minutes prior before running on cell imager. The FDSS 7000EX (Hamamatsu) was used to acquire Ca^++ traces from cells in response to compound treatment and the data was used to generate dose response curves in agonist mode. All compounds were serially diluted in DMSO then prepared in Assay Buffer for Ca^++ flux studies. The dose response curves were generated from the average of triplicate wells obtained from each data point and used a non-linear regression of four parameter dose response algorithm. The Percent Activity (PA) was measured to EC100 of Carbachol.

| Structure (SMILES) | M4 FDSS PA [1] | EC50 [1] | M2 FDSS PA [2] | Emax [1] | Emax [2] | EC50 [2] |
| --- | --- | --- | --- | --- | --- | --- |
| Cc1nnc(COc2ccccc2C2CCN([C@@H]3CCC4(C3)CN(C(=O)C3(F)CC3)C4)CC2)o1 (single isomer, unassigned) [Example 7W, (R)-(1-fluorocyclopropyl)(6-(4-(2-((5-methyl-1,3,4-oxadiazol-2-yl)methoxy)phenyl)piperidin-1-yl)-2-azaspiro[3.4]octan-2-yl)methanone or (S)-(1-fluorocyclopropyl)(6-(4-(2-((5-methyl-1,3,4-oxadiazol-2-yl)methoxy)phenyl)piperidin-1-yl)-2-azaspiro[3.4]octan-2-yl)methanone] | 67% | < 0.0004 µM | 0% | – | – | – |
| Fc1ccc(OC2CC3(COC3)C2)c(C2CCN([C@@H]3CCC4(C3)CN(c3nnco3)C4)CC2)c1 [Example 1B, (R)-2-(6-(4-(2-((2-oxaspiro[3.3]heptan-6-yl)oxy)-5-fluorophenyl)piperidin-1-yl)-2-azaspiro[3.4]octan-2-yl)-1,3,4-oxadiazole] | – | 0.001 µM | – | 69% | 0% | – |
| FC(F)(F)Oc1ccccc1C1CCN([C@@H]2CCC3(C2)CN(c2ncco2)C3)CC1 (single isomer, unassigned) [Example 10L, (R)-2-(6-(4-(2-(trifluoromethoxy)phenyl)piperidin-1-yl)-2-azaspiro[3.4]octan-2-yl)oxazole or (S)-2-(6-(4-(2-(trifluoromethoxy)phenyl)piperidin-1-yl)-2-azaspiro[3.4]octan-2-yl)oxazole] | 57% | 0.098 µM | 44% | – | – | 13.2 µM |
| Fc1ccc(OC2CC3(COC3)C2)c(C2CCN([C@@H]3CCC4(C3)CN(c3cncnc3)C4)CC2)c1 (single isomer, unassigned) [Example 10E, (R)-6-(4-(2-((2-oxaspiro[3.3]heptan-6-yl)oxy)-5-fluorophenyl)piperidin-1-yl)-2-(pyrimidin-5-yl)-2-azaspiro[3.4]octane or (S)-6-(4-(2-((2-oxaspiro[3.3]heptan-6-yl)oxy)-5-fluorophenyl)piperidin-1-yl)-2-(pyrimidin-5-yl)-2-azaspiro[3.4]octane] | 59% | 0.027 µM | 11% | – | – | 3.99 µM |
| CC(C)(O)COc1ccccc1C1CCN([C@@H]2CCC3(C2)CN(c2cncnc2)C3)CC1 [Example 5B, (R)-2-methyl-1-(2-(1-(2-(pyrimidin-5-yl)-2-azaspiro[3.4]octan-6-yl)piperidin-4-yl)phenoxy)propan-2-ol] | – | 0.004 µM | – | 53% | 0% | – |
| COc1ccc(Cl)cc1C1CCN([C@H]2CCC3(C2)CN(C(=O)C2(F)CC2)C3)CC1 (single isomer, unassigned) [Example 8A, (S)-(6-(4-(5-chloro-2-methoxyphenyl)piperidin-1-yl)-2-azaspiro[3.4]octan-2-yl)(1-fluorocyclopropyl)methanone or (R)-(6-(4-(5-chloro-2-methoxyphenyl)piperidin-1-yl)-2-azaspiro[3.4]octan-2-yl)(1-fluorocyclopropyl)methanone] | 43% | 0.036 µM | 0% | – | – | – |
| Fc1ccc(OC2CCOCC2)c(C2CCN([C@@H]3CCC4(C3)CN(c3cncnc3)C4)CC2)c1 (single isomer, unassigned) [Example 10H, (R)-6-(4-(5-fluoro-2-((tetrahydro-2H-pyran-4-yl)oxy)phenyl)piperidin-1-yl)-2-(pyrimidin-5-yl)-2-azaspiro[3.4]octane or (S)-6-(4-(5-fluoro-2-((tetrahydro-2H-pyran-4-yl)oxy)phenyl)piperidin-1-yl)-2-(pyrimidin-5-yl)-2-azaspiro[3.4]octane] | 51% | 0.019 µM | 0% | – | – | – |

Results, then the compound that gave them:

| M4 FDSS PA [1] | EC50 [1] | M2 FDSS PA [2] | Emax [1] | Emax [2] | EC50 [2] | Structure (SMILES) |
| --- | --- | --- | --- | --- | --- | --- |
| 55% | 0.001 µM | 0% | – | – | – | O=C(N1CC2(CC[C@@H](N3CCC(c4ccccc4OC4CCOCC4)CC3)C2)C1)C1(F)CC1 (single isomer, unassigned) [Example 9E, (R)-(1-fluorocyclopropyl)(6-(4-(2-((tetrahydro-2H-pyran-4-yl)oxy)phenyl)piperidin-1-yl)-2-azaspiro[3.4]octan-2-yl)methanone or (S)-(1-fluorocyclopropyl)(6-(4-(2-((tetrahydro-2H-pyran-4-yl)oxy)phenyl)piperidin-1-yl)-2-azaspiro[3.4]octan-2-yl)methanone] |
| 47% | 0.002 µM | 0% | – | – | – | O=C(N1CC2(CC[C@@H](N3CCC(c4ccccc4OC4CC5(COC5)C4)CC3)C2)C1)C1(F)CC1 (single isomer, unassigned) [Example 11C, (R)-(6-(4-(2-((2-oxaspiro[3.3]heptan-6-yl)oxy)phenyl)piperidin-1-yl)-2-azaspiro[3.4]octan-2-yl)(1-fluorocyclopropyl)methanone or (S)-(6-(4-(2-((2-oxaspiro[3.3]heptan-6-yl)oxy)phenyl)piperidin-1-yl)-2-azaspiro[3.4]octan-2-yl)(1-fluorocyclopropyl)methanone] |
| – | 0.006 µM | – | 59% | 26% | – | COc1ccccc1C1CCN([C@@H]2CCC3(C2)CN(c2cncc(F)c2)C3)CC1 [Example 5F, (R)-2-(5-fluoropyridin-3-yl)-6-(4-(2-methoxyphenyl)piperidin-1-yl)-2-azaspiro[3.4]octane] |
